Entries after “also recorded” stand apart in the source; their conditions may differ.
How the values were obtained:
Srebp1c mRNA = assay: qRT-PCR Srebp1c mRNA level in steatosis-induced Huh-7 cells; assay type: cell-based, Human; settings: steatosis-induced (OA/PA) Huh-7 cells; 10 μM; 24 hours
Method: (§1) In Experimental Example 5, the Huh-7 cells were plated in 6 wells at 4×10^5 cells/mL and incubated under an atmosphere containing 5% CO2 at 37° C.
(§2) One day later, the cell density approached about 80 to 90%. The medium was changed to an FBS-free RPMI1640 medium, and incubated under an atmosphere containing 5% CO2 at 37° C. for 24 hours.
(§3) Huh-7 cells of each well, excluding control cells, were pretreated with an OA/PA mixture for one hour to induce steatosis. The control cells were pretreated with 1% FA-free BSA.
(§4) Each well was treated with 10 μM of a test compound, and then the cells were incubated for 24 hours. The control cells and OA/PA-treated cells were treated with DMSO. Cells of a positive control were treated with 10 μM of resveratrol, 10 μM of piperine, and 10 μM of YU2014. The medium was entirely aspirated, and the cells were washed with PBS (phosphate buffered saline, Corning, Manassas, Va., USA) two times.
(§5) Total RNA was extracted using a RNeasy RNA isolation kit (Qiagen, Hilden, Germany).
(§6) 10 μL of β-mercaptoethanol (Sigma-Aldrich) per 1 mL of lysis buffer was added, thereby preparing an RNA lysis buffer. […]
(§7) An RNA concentration was measured at O.D. 260 nm using a nanophotometer N60 (Implen, Munich, Germany). The concentration and purity of RNA were measured at O.D. 260/280 nm and calculated as a ratio. […]
(§8) Quantitative analyses for the genes in Table 3 were performed.

Pparα mRNA = assay: qRT-PCR Pparα mRNA level in steatosis-induced Huh-7 cells; assay type: cell-based, Human; settings: steatosis-induced (OA/PA) Huh-7 cells; 10 μM; 24 hours
Method: as §1, §2, §3, §4, §5, §6, §7, §8

Huh-7 cells = assay: Oil-Red O staining and lipid accumulation in steatosis-induced Huh-7 cells; assay type: cell-based; settings: Huh-7 cells pretreated with OA/PA (R-28: OA); 10, 20 or 40 μM (R-28: 2, 10, 50 μM); 24 hours
Method: Huh-7 cells were maintained in a RPMI1640 medium containing 10% FBS, 100 U/mL of penicillin, and 100 μg/mL of streptomycin. All reagents were purchased from Life Technologies Corporation (Grand Island, N.Y., USA).
The Huh-7 cells were incubated under an atmosphere containing 5% CO2 at 37° C.
In Experimental Example 4, the Huh-7 cells were plated in 24 wells at 3×10^5 cells/mL and incubated under an atmosphere containing 5% CO2 at 37° C.
as §2
Huh-7 cells of each well, excluding control cells, were pretreated with an OA/PA mixture (however, R-28 is OA) for 1 hour to induce steatosis. Control cells were pretreated with 1% FA-free BSA.
Each well was treated with 10 μM, 20 μM, or 40 μM of a test compound (however, for R-28, 2 μM, 10 μM and 50 μM), and cultured for 24 hours. The control cells and the OA/PA-treated cells were treated with DMSO. […]
Images were obtained from a Cytation 5 Cell Imaging Multi-Mode Reader (BioTek, Winooski, Vt., USA). […]
200 μL of isopropyl alcohol was added to each well, and the cells were collected in a 96-well plate. Absorbance was measured at 540 nm, and data was analyzed.

CSc1ccc(/C=C/C=C/C(=O)N2CCCCC2)cc1 [YU2014, (2E,4E)-5-(4-(methylthio)phenyl)-1-(piperidine-1-yl)penta-2,4-dien-1-one]
Srebp1c mRNA level (FIG. 14) (Srebp1c mRNA): reduce
Pparα mRNA level (FIG. 10) (Pparα mRNA): hardly increased; also recorded: no effect
degree of lipid staining (ORO, absorbance at 540 nm, FIGS. 5-8) (Huh-7 cells): not greatly changed

Reference: patent publication US20200157048A1, “(2E,4E)-5-PHENYL-PENTA-2,4-DIEN-1-ONE DERIVATIVE” (BIOWAY., INC, priority 2018, published 2020)
